Results: ChEMBL document CHEMBL5214937, “Comparative analysis of p-terphenylquinone and seriniquinone derivatives as reactive oxygen species-modulating agents” (Bioorg Med Chem Lett, 2022)
The source made the active and inactive calls. No cut-off for these calls is given here.

What was measured:
B16 = assay: Antiproliferative activity against mouse B16 cells assessed as inhibition of cell growth incubated for 48 hrs by CCK-8 assay; assay type: functional, cell-based; conditions: B16, 48 h
HL-60 [1] = assay: Antiproliferative activity against human HL-60 cells assessed as inhibition of cell growth incubated for 48 hrs by CCK-8 assay; assay type: functional, cell-based; conditions: HL-60, 48 h
HL-60 [2] = assay: Antiproliferative activity against human HL-60 cells assessed as reduction in cell viability at 12.5 uM incubated for 48 hrs by CCK-8 assay relative to control; assay type: functional
HL-60 [3] = assay: Induction of ROS generation in human HL-60 cells assessed as fold increase in intracellular ROS level at 6.25 uM incubated for 3 hrs by NBT reduction assay relative to control; assay type: functional
HL-60 [4] = assay: Induction of ROS generation in human HL-60 cells assessed as increase in extracellular ROS level at 6.25 uM incubated for 3 hrs by NBT reduction assay; assay type: functional, cell-based
HL-60 [5] = assay: Induction of cell morphological changes in human HL-60 cells assessed as chromatin condensation at 3 uM incubated for 48 hrs by Hoechst 33342 staining based microscopic analysis; assay type: functional
HL-60 [6] = assay: Induction of cell morphological changes in human HL-60 cells assessed as appearance of apoptotic bodies at 3 uM incubated for 48 hrs by Hoechst 33342 staining based microscopic analysis; assay type: functional

O=c1c(=O)c2c(oc3c(=O)c4ccccc4c(=O)c32)c2ccccc12
IC50 (B16): 2.95 µM
IC50 (HL-60 [1]): 1.57 µM
Activity (HL-60 [2]): <10%
fold change (FC) (HL-60 [3]): >4
Activity (HL-60 [4]): Active
Activity (HL-60 [5]): Active
Activity (HL-60 [6]): Active

COC1=C(c2ccccc2)C(=O)C(OC)=C(c2ccccc2)C1=O [BETULINAN A]
IC50 (HL-60 [1]): 5.91 µM

O=C1C(O)=C(c2ccccc2)C(=O)C(O)=C1c1ccccc1
IC50 (HL-60 [1]): > 25 µM

O=c1c2ccccc2c(=O)c2c1oc1c(=O)c3ccccc3c(=O)c12
IC50 (B16): 0.18 µM
IC50 (HL-60 [1]): 0.07 µM
Activity (HL-60 [2]): <10%
fold change (FC) (HL-60 [3]): >4
Activity (HL-60 [5]): Active
Activity (HL-60 [6]): Active

COc1ccc2c(=O)c3c(oc4c5ccc(OC)cc5c(=O)c(=O)c43)c(=O)c2c1
Activity (HL-60 [2]): 74%

COc1ccc2c(=O)c3sc4c(=O)c5ccc(OC)cc5c(=O)c4c3c(=O)c2c1
Activity (HL-60 [2]): 31.8%

O=C1C(O)=C(c2ccc(O)cc2)C(=O)C(O)=C1c1ccc(O)cc1
IC50 (HL-60 [1]): 5.71 µM

O=c1c2ccccc2c(=O)c2c1[se]c1c(=O)c3ccccc3c(=O)c12
IC50 (B16): 2.83 µM
IC50 (HL-60 [1]): 2.91 µM
Activity (HL-60 [2]): <10%
fold change (FC) (HL-60 [3]): >4
Activity (HL-60 [5]): Active
Activity (HL-60 [6]): Active

COc1ccc(C2=C(O)C(=O)C(c3ccc(OC)cc3)=C(O)C2=O)cc1
IC50 (HL-60 [1]): > 25 µM

COC1=C(c2ccc(O)cc2)C(=O)C(OC)=C(c2ccc(O)cc2)C1=O
IC50 (HL-60 [1]): > 25 µM

COc1ccc2c(=O)c3oc4c5cc(OC)ccc5c(=O)c(=O)c4c3c(=O)c2c1
Activity (HL-60 [2]): 11%

COC1=C(c2ccc(OC)cc2)C(=O)C(OC)=C(c2ccc(OC)cc2)C1=O
IC50 (HL-60 [1]): > 25 µM

O=C1C(OC(=O)c2ccccc2)=C(c2ccc(O)cc2)C(=O)C(OC(=O)c2ccccc2)=C1c1ccc(O)cc1
IC50 (HL-60 [1]): > 25 µM

O=c1c2ccccc2c(=O)c2c1sc1c(=O)c3ccccc3c(=O)c12
IC50 (B16): 2.38 µM
IC50 (HL-60 [1]): 1.73 µM
Activity (HL-60 [2]): <10%
fold change (FC) (HL-60 [3]): >4
Activity (HL-60 [5]): Active
Activity (HL-60 [6]): Active
